Reference: US9603849B2, “Uses of orvepitant” (NERRE THERAPEUTICS LIMITED, priority 2012, dated 2017)

Target: NK-1 receptor (Meriones unguiculatus, UniProt Q5DUB1)
Experiment: GR73632-induced hindlimb scratching behaviour in the Mongolian gerbil
Format: in vivo
Conditions: all doses tested (from 0.1 to 10.0 mg/kg)
Text: 5) Particularly the antipruritic effect of orvepitant maleate was determinated in GR73632-induced scratching behaviour in the Mongolian gerbil. According to this metholody the scratching behaviour was induced by GR73632 which is a specific agonist of the NK-1 receptor.
72 male Mongolian gerbils (58-78 g) after a minimum habituation period of 10 days prior to study commencement, were acclimatised to the procedure room in their home cages, with food and water available ad libitum. The day before the experiment was due to commence a 1 cm×1 cm squared area between the shoulder blades was shaved free of hair.
Habituation to the apparatus (custom made observation chambers; approximately 30×30 cm; 2 animals per observation) took place 30 minutes prior to induction of scratching behaviours using GR73632.
A 10 mg/kg stock solution of orvepitant maleate was made by dissolving 20 mg of orvepitant maleate Form 1 in 20 mls of vehicle (5% DMSO & 95% HPMC (0.5%)). This stock solution was serially diluted to prepare doses of 0.1, 0.3, 1.0, 3.0 or 10 mg/kg orvepitant maleate.
At T=−60 mins mongolian gerbils were dosed with orvepitant maleate (0.1, 0.3, 1.0, 3.0 or, 10 mg/kg p.o.). Gerbils were allocated to dosing groups based on a Latin square design. 30 Minutes later (T=−30 mins) gerbils were placed into the observation chamber for 30 minutes habituation. At T=0 Gerbils were then dosed with GR73632 (30 nmol/100 uL; i.d.) between the shoulder blades and their subsequent hindlimb scratching behaviour recorded using GeoVision surveillance software over a 30 minute period.
Playing back of the video served for counting scratching behaviour. […] Cumulative frequency and duration (secs) of scratching was scored in 5 min epochs. Treatment groups were randomised based on a Latin Square design. The experimenter was blinded to the treatment groups.
Repeated measures ANOVA followed by Planned comparison test using GraphPad Prism. (p<0.05 considered significant). Data were analysed by comparing treatment groups to control group at each time point.

NK-1 receptor, sequence (Q5DUB1 whole entry): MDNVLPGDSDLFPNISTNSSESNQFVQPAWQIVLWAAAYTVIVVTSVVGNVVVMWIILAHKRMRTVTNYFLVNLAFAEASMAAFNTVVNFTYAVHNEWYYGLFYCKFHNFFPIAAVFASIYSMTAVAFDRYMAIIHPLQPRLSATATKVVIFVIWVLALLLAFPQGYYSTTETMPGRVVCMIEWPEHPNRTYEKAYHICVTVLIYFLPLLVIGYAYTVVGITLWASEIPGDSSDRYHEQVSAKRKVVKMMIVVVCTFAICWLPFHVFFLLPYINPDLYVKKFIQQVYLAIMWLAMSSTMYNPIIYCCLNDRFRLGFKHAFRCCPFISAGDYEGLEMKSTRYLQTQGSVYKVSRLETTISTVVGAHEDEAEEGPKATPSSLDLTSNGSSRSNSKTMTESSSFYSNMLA

Cc1cc(F)ccc1[C@H]1C[C@@H](N2CCN3C(=O)CC[C@H]3C2)CCN1C(=O)N(C)[C@H](C)c1cc(C(F)(F)F)cc(C(F)(F)F)c1 [Orvepitant, 2-(R)-(4-Fluoro-2-methyl-phenyl)-4-(S)-((8aS)-6-oxo-hexahydro-pyrrolo[1,2-a]-pyrazin-2-yl)-piperidine-1-carboxylic acid [1-(R)-(3,5-bis-trifluoromethyl-phenyl)-ethyl]-methylamide] was tested, and the “inhibition of GR73632 induced hindlimb scratching” value was “profound inhibition”.
